In the supplement of paper PMC10307832:

Assays:
Assay in all cases: relative viability (nuclei count vs DMSO), 5 days (fraction); higher = more cells survive
KIN001-266 + Trametinib = compound: CCN1CCC(CC1)N2C=C(N=N2)CNC3=CC4=C(C(=CN=C4C(=C3)Cl)C#N)NC5=CC(=C(C=C5)F)Cl [KIN001-266] + CC(=O)Nc1cccc(-n2c(=O)n(C3CC3)c(=O)c3c(Nc4ccc(I)cc4F)n(C)c(=O)c(C)c32)c1 [Trametinib] (partner 0.02 µM)
Procedure, shortened: (§1)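 Cells from lung cancer lines were seeded into 1536-well plates and, one day later, dosed by pin tool. Treatments were either a single drug or a fixed dose of an anchor drug with five library-drug doses (not always all listed) in √10 steps. After 5 days, nuclei were stained in a one-step fixation (final 0.05% Triton X-100, 1% formaldehyde, 1 ug/ml Hoechst) and counted on 4× images, and relative viability is the treated-to-vehicle nuclei ratio, as the median of duplicate plates.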

KIN001-266 + Navitoclax = compound: CCN1CCC(CC1)N2C=C(N=N2)CNC3=CC4=C(C(=CN=C4C(=C3)Cl)C#N)NC5=CC(=C(C=C5)F)Cl [KIN001-266] + CC1(C)CCC(c2ccc(Cl)cc2)=C(CN2CCN(c3ccc(C(=O)NS(=O)(=O)c4ccc(N[C@H](CCN5CCOCC5)CSc5ccccc5)c(S(=O)(=O)C(F)(F)F)c4)cc3)CC2)C1 [Navitoclax] (partner 0.5 µM)
Procedure, shortened: as §1

KIN001-266 + Pemetrexed = compound: CCN1CCC(CC1)N2C=C(N=N2)CNC3=CC4=C(C(=CN=C4C(=C3)Cl)C#N)NC5=CC(=C(C=C5)F)Cl [KIN001-266] + Nc1nc2[nH]cc(CCc3ccc(C(=O)N[C@@H](CCC(=O)O)C(=O)O)cc3)c2c(=O)[nH]1 [Pemetrexed] (partner 0.2 µM)
Procedure, shortened: as §1

KIN001-266 + Phenformin = compound: CCN1CCC(CC1)N2C=C(N=N2)CNC3=CC4=C(C(=CN=C4C(=C3)Cl)C#N)NC5=CC(=C(C=C5)F)Cl [KIN001-266] + N=C(N)NC(=N)NCCc1ccccc1 [Phenformin] (partner 250 µM)
Procedure, shortened: as §1

Row | Cell Line | relative viability (KIN001-266 + Trametinib; first compound 0.08 µM) | relative viability (KIN001-266 + Trametinib; first compound 0.253 µM) | relative viability (KIN001-266 + Trametinib; first compound 0.8 µM) | relative viability (KIN001-266 + Trametinib; first compound 2.53 µM) | relative viability (KIN001-266 + Trametinib; first compound 8 µM) | relative viability (KIN001-266 + Navitoclax; first compound 0.08 µM) | relative viability (KIN001-266 + Navitoclax; first compound 0.253 µM) | relative viability (KIN001-266 + Navitoclax; first compound 0.8 µM) | relative viability (KIN001-266 + Navitoclax; first compound 2.53 µM) | relative viability (KIN001-266 + Navitoclax; first compound 8 µM) | relative viability (KIN001-266 + Pemetrexed; first compound 0.08 µM) | relative viability (KIN001-266 + Pemetrexed; first compound 0.253 µM) | relative viability (KIN001-266 + Pemetrexed; first compound 0.8 µM) | relative viability (KIN001-266 + Pemetrexed; first compound 2.53 µM) | relative viability (KIN001-266 + Pemetrexed; first compound 8 µM) | relative viability (KIN001-266 + Phenformin; first compound 0.08 µM) | relative viability (KIN001-266 + Phenformin; first compound 0.253 µM) | relative viability (KIN001-266 + Phenformin; first compound 0.8 µM) | relative viability (KIN001-266 + Phenformin; first compound 2.53 µM) | relative viability (KIN001-266 + Phenformin; first compound 8 µM)
1 | COR-L23 | 0.634 | 0.667 | 0.651 | 0.512 | 0.486 | 0.99 | 1.03 | 1.01 | 1.01 | 0.54 | 0.204 | 0.219 | 0.206 | 0.191 | 0.209 | 0.439 | 0.452 | 0.452 | 0.455 | 0.368
2 | NCI-H1944 | 0.419 | 0.401 | 0.324 | 0.393 | 0.41 | 1.03 | 1.05 | 0.991 | 1.04 | 1.04 | 0.616 | 0.572 | 0.596 | 0.664 | 0.57 | 0.208 | 0.194 | 0.186 | 0.199 | 0.164
3 | HCC-78 | 0.747 | 0.705 | 0.667 | 0.838 | 0.753 | 0.812 | 0.807 | 0.758 | 0.88 | 0.775 | 0.874 | 0.832 | 0.872 | 0.873 | 0.91 | 0.714 | 0.664 |  | 0.656 | 0.806
4 | NCI-H2405 | 0.64 | 0.658 | 0.661 | 0.615 | 0.61 | 1.02 | 1 | 0.901 | 0.881 | 0.4 | 1.08 | 1.04 | 1.2 | 0.84 | 0.932 | 0.401 | 0.412 | 0.378 | 0.379 | 0.155
5 | SK-LU-1 | 0.518 | 0.451 | 0.437 | 0.369 | 0.429 | 0.677 | 0.465 | 1.11 | 0.839 | 0.512 | 1.03 | 1 | 1.06 | 0.962 | 0.714 | 0.561 | 0.47 | 0.526 | 0.439 | 0.394
6 | EMC-BAC-2 | 0.896 | 0.958 | 0.842 | 0.868 | 0.855 | 1.15 | 1.1 | 1.08 | 1.16 | 1.22 | 0.505 | 0.504 | 0.449 | 0.462 | 0.529 | 0.56 | 0.516 | 0.482 | 0.54 | 0.475
7 | NCI-H1650 | 0.581 | 0.602 | 0.42 | 0.457 | 0.373 | 1.09 | 1.1 | 1.23 | 1.15 | 0.985 | 0.371 | 0.409 | 0.412 | 0.338 | 0.36 | 0.479 | 0.448 | 0.326 | 0.261 | 0.305
8 | NCI-H596 | 0.742 | 0.698 | 0.851 | 0.778 | 0.673 | 1.02 | 0.857 | 0.92 | 1 | 0.785 | 0.451 | 0.481 | 0.498 | 0.403 | 0.477 | 0.718 | 0.805 | 0.686 | 0.721 | 0.677
9 | LCLC-97TM1 | 0.18 | 0.185 | 0.199 |  | 0.164 | 0.506 | 0.365 | 0.247 | 0.398 | 0.333 | 0.193 | 0.191 | 0.171 |  | 0.227 | 0.414 | 0.442 | 0.413 | 0.41 | 0.407
10 | H3255 | 0.545 | 0.581 | 0.643 | 0.659 | 0.484 | 0.689 | 0.566 | 0.494 | 0.482 | 0.615 | 0.55 | 0.585 | 0.5 | 0.506 | 0.505 | 0.356 | 0.373 | 0.353 | 0.353 | 0.345
11 | LXF-289 | 0.678 | 0.683 | 0.683 | 0.679 | 0.708 | 0.957 | 0.952 | 0.929 | 0.952 | 0.925 | 0.839 | 0.861 | 0.855 | 0.771 | 1.01 | 0.497 | 0.522 | 0.497 | 0.534 | 0.54
12 | UMC-11 | 0.741 | 0.711 | 0.718 | 0.506 | 0.774 | 0.3 | 0.319 | 0.38 | 0.355 | 0.278 | 0.773 | 0.728 | 0.757 | 0.757 | 0.707 | 0.336 | 0.381 | 0.333 | 0.316 | 0.251
13 | LC-2-ad | 0.924 | 0.938 | 0.918 | 0.897 | 0.931 | 0.763 | 0.429 | 0.473 | 0.415 | 0.479 | 0.288 | 0.301 | 0.272 | 0.271 | 0.275 | 0.622 | 0.647 | 0.629 | 0.637 | 0.576
14 | SK-MES-1 | 0.564 | 0.562 | 0.551 | 0.522 | 0.47 | 1.25 | 1.17 | 1.11 | 1.04 | 0.858 | 0.873 | 0.912 | 0.903 | 0.833 | 0.79 | 0.648 | 0.695 | 0.693 | 0.519 | 0.459
15 | A-427 | 0.823 | 0.73 | 0.711 | 0.618 | 0.658 | 0.973 | 0.991 | 0.978 | 0.983 | 0.953 | 1.01 | 0.96 | 1.04 | 0.881 | 0.95 | 0.357 | 0.307 | 0.289 | 0.275 | 0.247
16 | NCI-H322M | 0.487 | 0.515 | 0.5 | 0.479 | 0.497 | 1.19 | 1.3 | 1.24 | 1.05 | 1.18 | 0.598 | 0.611 | 0.628 | 0.461 | 0.666 | 0.841 | 0.835 | 0.822 | 0.743 | 0.747
